“And” between values parts separate entries of the source, which are not always exact repeats. Identical values can stand only once. “Also recorded” adds a separate entry of the source. Like-named read-outs stand apart in the source and are kept apart here.
Experiments:
[1] = system: chloroform-induced ventricular fibrillation; assay: protection against chloroform-induced ventricular fibrillation in mice; type: in vivo, mouse (female Swiss albino, Ham/ICR); details: for ED50: Mus musculus, sc, read-out: ED50 for protecting against fibrillation; for antiarrhythmic activity (in words): chloroform fibrillation; for relative Potency (molar basis): ED50^-1 in mmol/kg, standardized to compound 1 = 1
Method: (§1) Ventricular fibrillation was produced in female Swiss albino mice (Ham/ICR weighing 18-25g.) essentially according to the method described by Lawson in J. Pharm, Exp. Therap. 160, 22 (1968).
The mice were placed individually into a 2,000 ml. beaker with cotton and 50 ml. of chloroform. Immediately after cessation of respiration the mouse was removed from the beaker, the thorax opened and the heart examined for the presence or absence of ventricular fibrillation. Each heart was stimulated by touching with forceps, and the nature of the cardiac rhythm was noted and confirmed by electrocardiographic recordings. The heart was considered to be fibrillating if fine tremulous movements were present on the surface of the ventricle and persisted for at least five seconds after the mechanical stimulus. Ventricular fibrillation was considered absent in those animals in which coordinated ventricular activity was evident following such procedures.
(§2) For initial evaluation of antiarrhythmic activity and toxicity of test compounds, a dose of 100 mg/kg (calculated for the base form, 1% solution in 0.9% saline, adjusted to pH 6-7) was administered subcutaneously to a group of 10 non-fasted, randomly selected mice. […] After 20 minutes they were exposed to chloroform vapors and tested for protection against fibrillation.
For determination of ED50 and relative potency of the compounds, three log-spaced doses of drug were selected to give a low, intermediate, and high degree of protection against fibrillation. Each dose was administered to 10 mice.
The data obtained from the three point assay was computer-analyzed using Berkson's minimum logit chi square analysis. The program was designed to give ED50 values with 95 percent Fieller limits.

[2] = system: mice; assay: central nervous system toxicity observation in mice (ataxia, convulsions, loss of righting reflex, death); type: in vivo, mouse (female Swiss albino, Ham/ICR); details: for Toxicity: Death (number of mice) / Toxicity: Ataxia (number of mice) / Toxicity: Con. (Convulsions) (number of mice) / Toxicity: LRR (Loss of righting reflex) (number of mice): 100 mg/kg s.c., 10 mice; for Toxicity: Ataxia (number of mice) / Toxicity: Con. (Convulsions) (number of mice) / Toxicity: LRR (Loss of righting reflex) (number of mice): 20 min observation; for toxicity (in words): mice
Method: as §1, §2

[3] = coronary ligated dogs, antiarrhythmic effect and toxicity, intravenous infusion (Harris procedure); type: in vivo, dog; details: dog, in vivo, iv
Method: (§3) Further confirmation of the superiority of the secondary amine compound was provided by comparison of the secondary and tertiary amines in tests on coronary ligated dogs. The tests were conducted in accordance with the procedure of Harris given in Circulation, 1, 1318, 1950. The drugs were administered by the intravenous route by infusion at a dosage of 0.5 mg./kg./minute, in a volume of 0.97 ml./minute and a concentration of 5.2-4.3 mg/ml. The animals were weighed and the solutions prepared on the day of the experiment.

[4] = system: ventricular arrhythmias in coronary ligated dogs; assay: as above; type: in vivo, dog; details: for Mean Arterial Blood Pressure, values after administration / Ventricular Rate, values after administration: i.v. infusion 0.5 mg/kg/minute
Method: as §3

[5] = system: mice; assay: central nervous system toxicity observation in mice (ataxia, convulsions, loss of righting reflex, death); type: in vivo, mouse (female Swiss albino, Ham/ICR); details: 138 mg/kg s.c., 10 mice
[6] = system: heart; details: cited from earlier work
[7] = system: central nervous system; details: metabolite of lidocaine, high doses of lidocaine; cited from earlier work
[8] = mice, three log-spaced doses, 10 mice each, 95% Fieller limits in brackets

Row | Structure (SMILES) | ED50 [1, 8] [mg/kg] | antiarrhythmic activity (in words) ([1]; mice) | Toxicity: Death (number of mice) [2] | Toxicity: Ataxia (number of mice) [2] | Toxicity: Con. (Convulsions) (number of mice) [2] | Toxicity: LRR (Loss of righting reflex) (number of mice) [2] | toxicity (in words) [2] | relative Potency (molar basis) [1] | other results
1 | CCN(CC)CC(=O)Nc1cc(OC)c(OC)cc1Cc1nccc2cc(OC)c(OC)cc12 [Compound 1] | 211 | increased the antiarrhythmic activity | 0 | 0 | 0 | 0 | decreased the central nervous system toxicity |  | 
2 | CCNCC(=O)Nc1cc(OC)c(OC)cc1Cc1nccc2cc(OC)c(OC)cc12 [Compound 2] | 142 | comparable protection against fibrillation at the same test dose | 0 | 9 | 0 | 0 | toxicity symptoms; also recorded: higher toxicity | 1 | 
3 | CCN(CC)CC(=O)Nc1c(Cc2nccc3ccccc23)ccc(OC)c1OC [Compound 3] | 146 | greater antiarrhythmic activity | 0 | 0 | 0 | 0 | lower toxicity | 1 | dose producing toxicity ([3]; Dose Producing Toxicity (convulsion)): 15.8 mg/kg; dose producing toxicity ([3]; Dose Producing Toxicity (profound head tremors)): 12.5 mg/kg; abolishing severe arrhythmias (in words) ([4]; coronary ligated dogs, i.v.): effective in abolishing severe arrhythmias; Mean Arterial Blood Pressure, values after administration ([4]; dog): 100 and 90; Ventricular Rate, values after administration ([4]; dog): 153 and 135; Dose Producing Toxicity (profound head tremors) ([4]; dog, in vivo, iv): 6.25 mg/kg
4 | CCNCC(=O)Nc1c(Cc2nccc3ccccc23)ccc(OC)c1OC [Compound 4, 1-(2-[2-ethylamino-acetyl]amino-3,4-dimethoxybenzyl)isoquinoline] | 54 | markedly higher antiarrhythmic potency than both its tertiary amine congener, compound 3, and lidocaine | 0 | 0 | 0 | 0 |  | 3 | abolishing severe arrhythmias (in words) ([4]; coronary ligated dogs, i.v.): effective in abolishing severe arrhythmias; central nervous system and cardiovascular toxicity at effective doses (in words) ([4]; coronary ligated dogs, i.v.): free from indications of central nervous system and cardiovascular toxicity; dose producing toxicity ([4]; dog, i.v. infusion): (c); Mean Arterial Blood Pressure, values after administration ([4]; dog): 125 and 85; Ventricular Rate, values after administration ([4]; dog): 147 and 123
5 | COc1ccc(Cc2nccc3ccccc23)c(NC(=O)C(C)N)c1OC (stereo not drawn) [Compound 5] | 257 | did not show any outstanding properties | 0 | 0 | 0 | 0 |  | 1 | 
6 | CCN(CC)CC(=O)Nc1cc(OC)c(OC)cc1Cc1nccc2ccccc12 [Compound 6] |  |  | 0 | 7 | 0 | 0 |  |  | 
7 | CCN(CC)CC(=O)Nc1c(CC2c3ccccc3CCN2C)ccc(OC)c1OC (stereo not drawn) [Compound 7] | 160 | essentially the same protection |  |  |  |  | comparable toxicity characteristics, as compound 1 | 1 | Toxicity: Ataxia (number of mice) [5]: 0; Toxicity: Con. (Convulsions) (number of mice) [5]: 0; Toxicity: Death (number of mice) [5]: 0; Toxicity: LRR (Loss of righting reflex) (number of mice) [5]: 0
8 | CCN(CC)CC(=O)Nc1c(C)cccc1C [Lidocaine, 2-diethylamino-2',6'-acetoxylidide, reference compound] |  | strong antiarrhythmic activity | 0 |  |  |  |  |  | ED50 [1]: 62 mg/kg; antiarrhythmic effectiveness (in words) ([6]; intravenous and intramuscular): proved effective as an antiarrhythmic drug administered both intravenously and intramuscularly
9 | COc1ccc(Cc2nccc3cc(OC)c(OC)cc23)cc1OC [Papaverine, reference compound] |  | only little antiarrhythmic activity | 0 | 2 | 0 | 0 | some evidence of toxicity |  | cardiac effect / arrhythmia at clinical doses (in words) ([6]; background, clinical use): doses required were also found to cause dangerous arrhythmias by depression of A-V and intraventricular conduction
10 | CCNCC(=O)Nc1c(C)cccc1C [monoethylglycinexylidide] |  |  |  |  |  |  |  |  | contribution to convulsive symptoms of CNS toxicity (in words) [7]: appears to be the metabolite contributing to the production of the convulsive symptoms of central nervous system toxicity with high doses of lidocaine

Reference: patent publication US4053603A, “Benzylisoquinoline derivatives, and use as anti-arrhythmic drugs” (Astra Pharmaceutical Products, Inc., priority 1976, dated 1977)
